Reference: US20250304623A1, “PEPTIDES FOR INTRACELLULAR DELIVERY” (UNIVERSIDADE DE SANTIAGO DE COMPOSTELA, priority 2022, published 2025)
Starred links: 1 amine or outer side, 2 acyl side, 3 side chain; linkers in the order of their positions; H or OH if unused. Residues, ends and D or L forms follow the SMILES beside them. Groups on a side chain read outwards from the residue. *: point of attachment. Glutaryl = O=C(CCCC(=O)[*:2])[*:1]; NHNH2 = NN*

Legend:
Assay type in all cases: cell-based
[1] = test system: A549 cells expressing EGFP; test: EGFP-targeting siRNA delivery (GFP silencing vs siMOCK), A549; settings: for percentage of GFP-silencing relative to siMOCK: A549 cells
Experimental: (§1) To generate an EGFP expressing HeLa cell line, HeLa cells were transfected with EGFP pDNA (pEGFP-C1, Clontech) and stable transfectants were selected with 400 μg/mL of G-418 (Millipore). Green clones were selected by epifluorescence microscopy and tested for EGFP expression stability through several passages. […] All other EGFP-expressing cell lines were obtained in a similar way from parent non-EGFP-expressing cell lines.
(§2) Cells expressing EGFP were seeded in a 96 well plate the day before the experiment at a concentration of 50,000 cell/mL (100 μL/w) in DMEM+10% FBS+1% Gln-Abt. For robotic library screening, the delivery of an EGFP-targeting siRNA (EGFP: enhanced green fluorescent protein, Ambion® Silencer® GFP Positive Control siRNA (siGFP) (AM4626)) in six different cell lines expressing EGFP was performed. […] The mixture was shaken for 30 min at room temperature (rt) before the addition to the cells. The cell medium was aspirated, and cells were washed twice with PBS. Finally, 50 μL of the solution of siRNA/amphiphile complexes were added to the cells and incubated for 4 h. After transfection, the medium was replaced by 100 μL of fresh DMEM supplemented with 10% FBS. The fluorescence knockdown was quantified after 72 h in a plate reader, by comparison with cells transfected with a non-targeting siRNA control (siMOCK, Silencer™ Negative Control No. 1 siRNA (siMOCK) (AM4611)). EGFP knockdown was compared with Lipofectamine® RNAiMAX silencing efficiency (30-60% depending on cell line, defined with a numeric value in the below tables). All experiments were done in triplicate.
(§3) Tables 1-7: RLuc (pDNA) or EGFP (mRNA) expression levels were normalized to Lipofectamine reagents (value=1) and expressed as fold-times signal increase. In the case of siRNA, the siRNA treated cells fluorescence was compared with siMOCK control fluorescence, while Cas9-RNP mediated knockout was measured against the fluorescence of untreated cells. In both siRNA and Cas9-RNP, values are expressed as % fluorescence reduction. Amphiphile concentration was 5 μM in all cases. All experiments were performed in triplicate.
(§4) Tables 20-25 show the mean (triplicates) percentage of GFP-silencing, accounted by fluorescence intensity decrease relative to a non-targeting siRNA (siMOCK) control, measured after the transfection of siRNA by different amphiphiles at different concentrations in a variety of cell lines. Background values, accounted by untreated control cells, were subtracted for processing.

[2] = test system: Hek293 cells expressing EGFP; test: EGFP-targeting siRNA delivery (GFP silencing vs siMOCK), Hek293
Experimental: as §1, §2, §3, §4

A549 cells = test: RLuc pDNA delivery, robotic library screening, A549
Experimental: Cells were seeded in a 96 well plate the day before the experiment at a concentration of 60,000 cell/mL (100 μL/w) in DMEM+10% FBS+1% Gln-Abt. For robotic library screening, the delivery of pDNA encoding for the expression of Renilla luciferase gene (RLuc, pRL-CMV (Promega, #E2261)) in six different cell lines was performed. Amphihilic molecule stock solutions in DMSO were diluted with DMEM and freshly mixed with pDNA stock solutions in DMEM prior to transfection experiments, to afford several complexes at different amphiphile concentration (2-10 μM) while maintaining a constant final pDNA concentration of 2 ng/μL. The mixture was shaken for 30 min at room temperature before the addition to the cells. The cell medium was aspirated, and cells were washed twice with PBS. Finally, 50 μL of the complex's solution were added to the cells and incubated for 4 h. After the incubation, the medium was replaced by 100 μL of fresh DMEM supplemented with 10% FBS. 72 hours after transfection the DMEM was removed, cells were washed once with HBSS and 90 μL of HBSS were added to each well. Cells were incubated at 37° C. for 30 minutes. Then basal luminescence levels were read in a plate reader. Immediately, 10 μL of coelenterazine h in HBSS were added to each well (5 μM final concentration) and cells were incubated at 37° C. for 10 minutes. Finally, the total luminescence measurement of the plates was performed. Amphiphile transfection efficiency was compared and normalized to Lipofectamine® 2000 efficiency (value of 1 in Tables 1-5 and 7; bold numbers). All experiments were done in triplicate.
as §3
Tables 8-13 show the mean (triplicates) luminescent intensity (RLU) measured after the transfection of RLuc pDNA by different amphiphiles at different concentrations in a variety of cell lines. Background luminescence values, accounted by untransfected control cells, were subtracted for processing.

| Molecule | percentage of GFP-silencing relative to siMOCK ([1]; Myristoleyl, 10 μM) [%] | percentage of GFP-silencing relative to siMOCK ([1]; Myristoleyl, 15 μM) [%] | percentage of GFP-silencing relative to siMOCK ([1]; Oleyl, 5 μM) [%] | percentage of GFP-silencing relative to siMOCK ([1]; Oleyl, 10 μM) [%] | percentage of GFP-silencing relative to siMOCK ([1]; Oleyl, 15 μM) [%] | percentage of GFP-silencing relative to siMOCK ([1]; Palmitoleyl, 15 μM) [%] | percentage of GFP-silencing relative to siMOCK ([1]; Petroselinyl, 10 μM) [%] | percentage of GFP-silencing relative to siMOCK ([1]; Petroselinyl, 15 μM) [%] | percentage of GFP-silencing relative to siMOCK ([2]; Dodecanal, 15 μM) [%] | percentage of GFP-silencing relative to siMOCK ([2]; Myristoleyl, 5 μM) [%] | mean luminescent intensity (RLuc pDNA) (A549 cells; Myristoleyl, 5 μM) [RLU] | mean luminescent intensity (RLuc pDNA) (A549 cells; Myristoleyl, 10 μM) [RLU] | mean luminescent intensity (RLuc pDNA) (A549 cells; Oleyl, 5 μM) [RLU] | mean luminescent intensity (RLuc pDNA) (A549 cells; Palmitoleyl, 5 μM) [RLU] | mean luminescent intensity (RLuc pDNA) (A549 cells; Palmitoleyl, 10 μM) [RLU] | mean luminescent intensity (RLuc pDNA) (A549 cells; Palmitoleyl, 15 μM) [RLU] | mean luminescent intensity (RLuc pDNA) (A549 cells; Petroselinyl, 5 μM) [RLU] | mean luminescent intensity (RLuc pDNA) (A549 cells; Petroselinyl, 15 μM) [RLU] | percentage of GFP-silencing relative to siMOCK ([1]; Dodecanal, 10 μM) [%] | percentage of GFP-silencing relative to siMOCK ([1]; Dodecanal, 15 μM) [%] | also measured |
| --- | --- | --- | --- | --- | --- | --- | --- | --- | --- | --- | --- | --- | --- | --- | --- | --- | --- | --- | --- | --- | --- |
| CC(=O)N[C@@H](CCCNC(=N)N)C(=O)N[C@@H](CCCCNC(=O)CCCC(=O)NN)C(=O)N[C@@H](Cc1c[nH]cn1)C(=O)N[C@@H](CCCNC(=N)N)C(=O)N[C@@H](CCCCNC(=O)CCCC(=O)NN)C(=O)N[C@@H](CCCCNC(=O)CCCC(=O)NN)C(=O)N[C@@H](Cc1c[nH]cn1)C(N)=O [7.3(L-H), Ac-RK*HRK*K*H-NH2] (Ac-RK([Glutaryl-NHNH2])HRK([Glutaryl-NHNH2])K([Glutaryl-NHNH2])H-NH2) | 22 | 31 | 2 | 14 | 21 | 40 | 20 | 52 | 14 | −3 | 184442 | 147873 | 4031 | 109148 | 140079 | 105643 | 94011 | 6719 |  |  | percentage of GFP-silencing relative to siMOCK ([1]; Myristoleyl, 5 μM): 18%; percentage of GFP-silencing relative to siMOCK ([2]; Palmitoleyl, 10 μM): 6%; mean luminescent intensity (RLuc pDNA) (A549 cells; Myristoleyl, 15 μM): 31551 RLU; mean luminescent intensity (RLuc pDNA) (A549 cells; Petroselinyl, 10 μM): 139603 RLU; pDNA delivery, times better than Lipofectamine 2000 (A549 cells; palmitoleyl or petroselinyl aldehydes): 30 times |
| Ac-RHLK*RHK*RRLK*RH-NH2 (Ac-RHLKRHKRRLKRH-NH2; not fully specified (residues 4, 7, 11); printed as Ac-RHLK*RHK*RRLK*RH-NH2; also: linker on K* not given here) [13(3His)] | 28 | 25 | 22 | 26 | 29 | 28 | 42 | 71 |  |  | 37751 | 2256 | 25257 | 18924 | 2866 | 2990 | 5271 | 8545 | 10 | 37 | siRNA % fluorescence reduction vs siMOCK ([1]; A549, amphiphile 5 μM, hydrophobic tail): 71%; percentage of GFP-silencing relative to siMOCK ([1]; Palmitoleyl, 10 μM): 36%; percentage of GFP-silencing relative to siMOCK ([2]; Dodecanal, 10 μM): −11%; percentage of GFP-silencing relative to siMOCK ([2]; Myristoleyl, 15 μM): 11%; percentage of GFP-silencing relative to siMOCK ([2]; Oleyl, 10 μM): 2%; mean luminescent intensity (RLuc pDNA) (A549 cells; Dodecanal, 15 μM): 1261 RLU |
| Ac-RHLK*RLK*RRLK*RL-NH2 (Ac-RHLKRLKRRLKRL-NH2; not fully specified (residues 4, 7, 11); printed as Ac-RHLK*RLK*RRLK*RL-NH2; also: linker on K* not given here) [13(Arg-His)] | 17 | 5 | 23 | 22 | 15 | 14 | 20 | 11 | 44 |  | 8162 |  | 14340 | 8561 |  | 3763 |  | 9721 | 28 | 18 | percentage of GFP-silencing relative to siMOCK ([2]; Dodecanal, 5 μM): 24%; percentage of GFP-silencing relative to siMOCK ([2]; Dodecanal, 10 μM): 39%; percentage of GFP-silencing relative to siMOCK ([2]; Myristoleyl, 10 μM): 48%; percentage of GFP-silencing relative to siMOCK ([2]; Myristoleyl, 15 μM): 25%; percentage of GFP-silencing relative to siMOCK ([2]; Oleyl, 10 μM): 39%; percentage of GFP-silencing relative to siMOCK ([2]; Oleyl, 15 μM): 47%; percentage of GFP-silencing relative to siMOCK ([2]; Petroselinyl, 5 μM): 30%; percentage of GFP-silencing relative to siMOCK ([2]; Petroselinyl, 10 μM): 5%; percentage of GFP-silencing relative to siMOCK ([2]; Petroselinyl, 15 μM): 18%; mean luminescent intensity (RLuc pDNA) (A549 cells; Dodecanal, 5 μM): 6594 RLU |
| Ac-RK*LRK*K*L-NH2 (Ac-RK(NHNH2)LRK(NHNH2)K(NHNH2)L-NH2; not fully specified; printed as Ac-RK*LRK*K*L-NH2; also: K*2,K*5,K*6: native or modified lysine (ε-amide to a linker)) [Peptide 7.3] |  |  | 3 |  | 7 |  | 13 |  |  | 29 |  |  |  |  | 3679 |  | 4314 |  | 22 | 19 | percentage of GFP-silencing relative to siMOCK ([1]; Dodecanal, 5 μM): 7%; percentage of GFP-silencing relative to siMOCK ([2]; Oleyl, 5 μM): 26%; percentage of GFP-silencing relative to siMOCK ([2]; Palmitoleyl, 15 μM): 19%; percentage of GFP-silencing relative to siMOCK ([2]; Petroselinyl, 15 μM): 3%; mean luminescent intensity (RLuc pDNA) (A549 cells; Dodecanal, 5 μM): 483 RLU; mean luminescent intensity (RLuc pDNA) (A549 cells; Dodecanal, 15 μM): 777 RLU |
| Ac-RK*LRRK*L-NH2 (Ac-RK(NHNH2)LRRK(NHNH2)L-NH2; not fully specified; printed as Ac-RK*LRRK*L-NH2; also: K*2,K*6: native or modified lysine (ε-amide to a linker)) [Peptide 7.2] | 14 | 16 |  |  |  |  |  |  | 7 | −8 | 5449 | 5343 |  |  |  |  |  |  | 11 | 8 | percentage of GFP-silencing relative to siMOCK ([1]; Dodecanal, 5 μM): 5%; percentage of GFP-silencing relative to siMOCK ([1]; Myristoleyl, 5 μM): 8%; mean luminescent intensity (RLuc pDNA) (A549 cells; Dodecanal, 5 μM): 302 RLU; mean luminescent intensity (RLuc pDNA) (A549 cells; Dodecanal, 15 μM): 208 RLU; mean luminescent intensity (RLuc pDNA) (A549 cells; Myristoleyl, 15 μM): 2367 RLU |
